# Data as given in US8765786B2, “1-substituted indazole derivative” (Dainippon Sumitomo Pharma Co., Ltd., priority 2012, dated 2014).
# Target: T1, human α7 nAChR (Homo sapiens, UniProt P36544)
# T1 construct: expressed in transfected cells; host or cells: GH4C1 cells derived from rat pituitary (ATCC CCL-82.2)
# Assay: Evaluation of PAM activity with human α7 nACh receptor stably expressing cells (aequorin luminescence, FDSS7000)
# Format: cell-based
# Conditions: test compound 10 μmol/L, ACh added at EC20, ratio of RLU (Max-Min) of test wells to control wells; for activity at 10 µM: read-out: α7PAM (%) @ 10 μmol/L
# Excerpt: Human α7 nAChR stably expressing cells were generated and cultured. In detail, GH4C1 cells derived from rat pituitary (cat#CCL-82.2, ATCC, USA) were used as a host cell. PcDNA3.1Zeo vector containing a nucleotide sequence encoding a protein GenBank BAC81731 and pcDNA3.1 vector containing human α7 nAChR gene (cat#V790-20, invitrogen, Carlsbad, Calif., USA) were transfected to the cells to give aequorins and human α7 nAChR stably expressing cells respectively. The aequorins and human α7 nAChR stably expressing cells were screened with Zeocin (cat#R25001, invitrogen, Carlsbad, Calif., USA) and Geneticin (cat #10131-027, invitrogen, Carlsbad, Calif., USA) respectively.
# The cells were cultured in F-10 Nutrient Mixture (Ham) medium (cat #11550-043, invitrogen, Carlsbad, Calif., USA) containing 2.5% fetal bovine serum (cat #2917354, ICN Biomedicals, Inc, USA), 15% inactivated horse serum (cat #26050-088, invitrogen, Carlsbad, Calif., USA), 1 μg/mL Geneticin, and 5 μg/mL Puromycin (cat #14861-84, invitrogen, Carlsbad, Calif., USA), in a Collagen Type 1-coated dish (cat #4030-010, iwaki, Tokyo, Japan). During the culture, the medium was replaced with fresh medium in every 2 to 3 days, and the cells were treated with TrypLE Express (cat #45604-021, invitrogen, Carlsbad, Calif., USA) to collect them in every 7 days. Thus, the cells were subcultured.
# 7 Days after subculturing, the cells were treated with TrypLE Express to collect them when they were about 80% confluent. The cells were suspended in a reaction medium containing Hanks (cat #14065-056, invitrogen, Carlsbad, Calif., USA)/20 mmol/L Hepes (cat #15630-080, invitrogen, Carlsbad, Calif., USA), Buffer (pH 7.4), F-10 Nutrient Mixture (Ham), and 0.1 mg/mL Geneticin, and the suspension was seeded in a 384-well plate (cat #781090, Greiner, Germany) at 20000 cells/25 μL per well.
# On the next day after seeding, Viviren (cat#E649X, Promega, Madison, Wis., USA) was added to the medium so that the final concentration could be 4 μmol/L (15 μL/well). The plates were centrifuged and then placed in the dark for 4 hours at room temperature.
# Each of the test compounds was dissolved in DMSO to prepare each test sample at a concentration of 1000-fold the final concentration. To the solution was added Hanks/20 mM HEPES/0.2% BSA (cat#A3803, Sigma, St. Louis, Mo., USA), and the concentration was adjusted to 6-fold the final concentration.
# FDSS7000 (Hamamatsu Photonics) was used to detect the luminescence signal evoked by α7 nAChR stimulation. The cells and a luminescent substrate were put on a plate, and the test sample was added thereto. […] After the addition of ACh, the luminescence signal (the central wavelength: 465 nm) was measured for 138 seconds to calculate RLU (Max-Min). The ratio of the RLU (Max-Min) of the test-compound-containing wells to that of the control wells was defined as PAM activity.
# T1 sequence (P36544 23-502): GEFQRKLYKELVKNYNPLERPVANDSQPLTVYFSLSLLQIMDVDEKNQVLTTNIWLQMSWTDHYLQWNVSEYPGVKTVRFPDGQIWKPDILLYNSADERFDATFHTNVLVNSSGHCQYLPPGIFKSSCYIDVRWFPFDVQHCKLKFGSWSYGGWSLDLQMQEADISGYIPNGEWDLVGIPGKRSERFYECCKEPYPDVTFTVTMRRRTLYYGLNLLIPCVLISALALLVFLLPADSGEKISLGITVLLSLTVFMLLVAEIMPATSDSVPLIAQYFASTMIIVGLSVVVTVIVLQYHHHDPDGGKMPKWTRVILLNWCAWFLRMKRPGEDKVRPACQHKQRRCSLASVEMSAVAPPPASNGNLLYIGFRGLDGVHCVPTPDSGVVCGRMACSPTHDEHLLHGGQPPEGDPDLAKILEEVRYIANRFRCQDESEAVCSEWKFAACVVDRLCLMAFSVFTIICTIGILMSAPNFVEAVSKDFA
α7PAM (%) @ 10 μmol/L,activity at 10 µM,SMILES
267%,,CCOc1ccc2c(cnn2C2CCN(C(=O)C3CCCCC3)CC2)c1 [Example 109]
638%,,Cc1ccc2c(cnn2C2CCN(C(=O)NC3CCC(F)(F)CC3)CC2)c1F [Example 222]
1215%,,O=C(NC1CCC(F)(F)CC1)N1CCC(n2ncc3c(OC4CC4)cccc32)CC1 [Example 250]
,430%,"O=C(NC1CCCC1)N1CCC(n2ncc3cc(Cl)ccc32)CC1 [Example 33, 4-(5-chloro-1H-indazol-1-yl)-N-cyclopentylpiperidine-1-carboxamide]"
1497%,,O=C(NC1CCCCC1)N1CCC(n2ncc3cc(C4CC4)ccc32)CC1 [Example 199]
217%,,COC1CCC(NC(=O)N2CCC(n3ncc4cc(C)ccc43)CC2)CC1 (stereo not shown) [Example 91]
268%,,N#Cc1ccc2c(cnn2C2CCN(C(=O)NC3CCC(F)(F)CC3)CC2)c1 [Example 198]
411%,,COC1CCC(NC(=O)N2CCC(n3ncc4cc(Cl)ccc43)CC2)CC1 (stereo not shown) [Example 35]
322%,,CCO[C@H]1CC[C@H](NC(=O)N2CCC(n3ncc4c(C5CC5)cccc43)CC2)CC1 [Example 44]
860%,,COC(C)c1c(C)ccc2c1cnn2C1CCN(C(=O)NC2CCC(F)(F)CC2)CC1 (stereo not shown) [Example 232]
448%,,COC1CCC(C(=O)N2CCC(n3ncc4cc(C5CC5)ccc43)CC2)CC1 (stereo not shown) [Example 141]
385%,,O=C(NC1CCOCC1)N1CCC(n2ncc3cc(Br)ccc32)CC1 [Example 65]
,729%,"CO[C@H]1CC[C@H](NC(=O)N2CCC(n3ncc4c(C)c(C5CC5)ccc43)CC2)CC1 [Example 277, 4-(5-cyclopropyl-4-methyl-1H-indazol-1-yl)-N-(trans-4-methoxycyclohexyl)piperidine-1-carboxamide]"
182%,,CC(C)Oc1ccc2c(cnn2C2CCN(C(=O)c3ccc(F)cn3)CC2)c1 [Example 115]
611%,,COCC1CCC(NC(=O)N2CCC(n3ncc4cc(OC(C)C)ccc43)CC2)CC1 (stereo not shown) [Example 235]
193%,,O=C(Nc1ccc(Cl)nn1)N1CCC(n2ncc3cc(C4CC4)ccc32)CC1 [Example 204]
188%,,CCc1ccc2c(cnn2C2CCN(C(=O)c3ccc(F)cn3)CC2)c1 [Example 118]
,442%,"CCOc1c(CC)ccc2c1cnn2C1CCN(C(=O)N[C@H]2CC[C@H](OC)CC2)CC1 [Example 272, 4-(4-ethoxy-5-ethyl-1H-indazol-1-yl)-N-(trans-4-methoxycyclohexyl)piperidine-1-carboxamide]"
189%,,CCOc1ccc2c(cnn2C2CCN(C(=O)c3ccc(F)cn3)CC2)c1 [Example 114]
1173%,,O=C(NC1CCC(F)(F)CC1)N1CCC(n2ncc3cc(OC(F)F)ccc32)CC1 [Example 290]
255%,,CCc1c(OC)ccc2c1cnn2C1CCN(C(=O)NC2CCOCC2)CC1 [Example 289]
242%,,COCc1nn(C2CCN(C(=O)NC3CCC(OC)CC3)CC2)c2ccc(C)cc12 (stereo not shown) [Example 69]
364%,,COc1nn(C2CCN(C(=O)NC3CCC(F)(F)CC3)CC2)c2ccc(C)cc12 [Example 270]
229%,,O=C(NC1CCC(F)(F)CC1)N1CCC(n2ncc3cc(-c4cccnc4)ccc32)CC1 [Example 196]
295%,,CCN(C(=O)N1CCC(n2ncc3ccccc32)CC1)C1CCC(OC)CC1 (stereo not shown) [Example 51]
413%,,O=C(NC1CCOCC1)N1CCC(n2ncc3cc(OC(F)F)ccc32)CC1 [Example 292]
,512%,"CCOc1ccc2c(cnn2C2CCN(C(=O)C3CCC(F)(F)CC3)CC2)c1 [Example 3, (4,4-difluorocyclohexyl)(4-(5-ethoxy-1H-indazol-1-yl)piperidin-1-yl)methanone]"

α7PAM (%) @ 10 μmol/L,activity at 10 µM,SMILES
729%,,COc1ccc2c(cnn2C2CCN(C(=O)NC3CCC(F)(F)CC3)CC2)c1OC [Example 305]
889%,,COc1ccc(CNC(=O)N2CCC(n3ncc4cc(C5CC5)ccc43)CC2)cc1 [Example 193]
742%,,COc1cccc2c1cnn2C1CCN(C(=O)NC2CCC(F)(F)CC2)CC1 [Example 182]
825%,,[2H]C([2H])([2H])c1ccc2c(cnn2C2CCN(C(=O)NC3CCCC3)CC2)c1 [Example 315]
420%,,Cc1ccc2c(cnn2C2CCN(C(=O)NC3CCC(OCC(F)(F)F)CC3)CC2)c1 (stereo not shown) [Example 83]
888%,,Cc1ccc2c(cnn2C2CCN(C(=O)NC3CCCC(F)(F)C3)CC2)c1 (stereo not shown) [Example 82]
348%,,COc1ccc2c(c1)c(C1CCOCC1)nn2C1CCN(C(=O)N[C@H]2CC[C@H](OC)CC2)CC1 [Example 262]
645%,,CCc1c(OC)ccc2c1cnn2C1CCN(C(=O)NC2CCC(F)(F)CC2)CC1 [Example 287]
577%,,CCc1ccc2c(c1)c(OC(C)C)nn2C1CCN(C(=O)NC2CCCC2)CC1 [Example 58]
1942%,,COCC1CCC(NC(=O)N2CCC(n3ncc4cc(C5CC5)ccc43)CC2)CC1 (stereo not shown) [Example 221]
237%,,O=C(C1CCC(F)(F)CC1)N1CCC(n2ncc3cc(F)ccc32)CC1 [Example 134]
331%,,COCC1CCC(NC(=O)N2CCC(n3ncc4cc(F)ccc43)CC2)CC1 (stereo not shown) [Example 236]
360%,,COc1c(C(F)(F)F)ccc2c1cnn2C1CCN(C(=O)NC2CCC(OC)CC2)CC1 (stereo not shown) [Example 317]
464%,,[2H]C([2H])([2H])O[C@H]1CC[C@H](NC(=O)N2CCC(n3ncc4c(CC)cccc43)CC2)CC1 [Example 307]
541%,,CC(C)(C)NC(=O)N1CCC(n2ncc3cc(C4CC4)ccc32)CC1 [Example 172]
265%,,CCOc1ccc2c(cnn2C2CCN(C(=O)c3ccc(F)cc3)CC2)c1 [Example 112]
1892%,,O=C(NC1CCCCC1)N1CCC(n2ncc3ccccc32)CC1 [Example 39]
,637%,"[2H]C([2H])([2H])c1ccc2c(cnn2C2CCN(C(=O)N[C@H]3CC[C@H](OC)CC3)CC2)c1 [Example 144, N-(trans-4-methoxycyclohexyl)-4-[5-(^2H3)methyl-1H-indazol-1-yl]piperidine-1-carboxamide]"
886%,,[2H]C([2H])([2H])Oc1c(C2CC2)ccc2c1cnn2C1CCN(C(=O)NC2CCOCC2)CC1 [Example 323]
,819%,"Cc1ccc2c(cnn2C2CCN(C(=O)N[C@@H]3CCCC3(F)F)CC2)c1 [Example 81, (R) —N-(2,2-difluorocyclopentyl)-4-(5-methyl-1H-indazol-1-yl)piperidine-1-carboxamide]"
375%,,COC1CCC(NC(=O)N2CCC(n3ncc4cc(OC(C)C)ccc43)CC2)CC1 (stereo not shown) [Example 47]
800%,,COCc1c(C)ccc2c1cnn2C1CCN(C(=O)NC2CCC(F)(F)CC2)CC1 [Example 213]
358%,,CCc1nn(C2CCN(C(=O)NC3CCC(F)(F)CC3)CC2)c2ccc(OC)cc12 [Example 241]
338%,,Cc1ccc2c(cnn2C2CCN(C(=O)C3CCCCC3)CC2)c1 [Example 105]
699%,,CCOc1cccc2c1cnn2C1CCN(C(=O)NC2CCC(F)(F)CC2)CC1 [Example 192]
514%,,COc1ccc2c(cnn2C2CCN(C(=O)NC3CCCC3(F)F)CC2)c1 (stereo not shown) [Example 87]
868%,,COC(C)Cc1ccc2c(cnn2C2CCN(C(=O)NC3CCC(F)(F)CC3)CC2)c1 (stereo not shown) [Example 251]

SMILES,α7PAM (%) @ 10 μmol/L,activity at 10 µM
CCc1ccc2c(cnn2C2CCN(C(=O)NC3CCOC(C)(C)C3)CC2)c1 (stereo not shown) [Example 21],523%,
